Entries after “also recorded” stand apart in the source; their conditions may differ.
Assays:
CYP3A = test: CYP inhibition, human liver microsomes; settings: substrate midazolam
hERG [1] = biological target: hERG (Homo sapiens, UniProt Q12809); test: hERG inhibition, CHO cells, automated patch-clamp; type: cell-based
[2] = tested on: TA98, TA100, TA1535, and TA1537 strains; type: cell-based; settings: with/without S9, 10, 50, and 100 µM
[3] = Brain penetration study in CD1 mice; type: in vivo; settings: CD1, mouse, intraperitoneal, 10 mg/kg
C57BL/6J mice = test: Amphetamine-induced hyperactivity, open field activity; settings: 3 mg/kg AMPH; for AMPH-stimulated hyperlocomotion at 20 mg/kg: 20 mg/kg ip; for AMPH-stimulated hyperlocomotion: 10 or 20 mg/kg ip, relative to Veh–AMPH group
human 5-HT2B [4] = biological target: T1, human 5-HT2B (Homo sapiens, UniProt P41595); test: Calcium flux
T1 sequence (P41595 whole entry): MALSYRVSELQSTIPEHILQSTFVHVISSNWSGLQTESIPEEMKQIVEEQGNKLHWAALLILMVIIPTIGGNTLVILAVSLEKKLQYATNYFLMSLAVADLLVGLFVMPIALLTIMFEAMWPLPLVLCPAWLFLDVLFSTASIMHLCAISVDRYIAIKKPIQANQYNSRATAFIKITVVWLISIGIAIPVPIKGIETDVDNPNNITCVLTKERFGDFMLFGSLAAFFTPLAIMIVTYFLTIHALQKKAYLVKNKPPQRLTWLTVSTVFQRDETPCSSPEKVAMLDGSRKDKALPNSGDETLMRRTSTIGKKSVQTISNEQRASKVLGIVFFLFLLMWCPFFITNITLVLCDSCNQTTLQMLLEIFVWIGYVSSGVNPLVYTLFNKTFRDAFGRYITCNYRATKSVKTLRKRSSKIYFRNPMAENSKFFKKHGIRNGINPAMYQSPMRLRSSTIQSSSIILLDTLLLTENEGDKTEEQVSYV

human 5-HT2B [5] = biological target: T1, human 5-HT2B; test: PDSP binding study, 5-HT2B
5-HT2C receptor = biological target: T2, 5-HT2C receptor (Homo sapiens, UniProt P28335); test: PDSP binding study, 5-HT2C
T2 sequence (P28335 33-458): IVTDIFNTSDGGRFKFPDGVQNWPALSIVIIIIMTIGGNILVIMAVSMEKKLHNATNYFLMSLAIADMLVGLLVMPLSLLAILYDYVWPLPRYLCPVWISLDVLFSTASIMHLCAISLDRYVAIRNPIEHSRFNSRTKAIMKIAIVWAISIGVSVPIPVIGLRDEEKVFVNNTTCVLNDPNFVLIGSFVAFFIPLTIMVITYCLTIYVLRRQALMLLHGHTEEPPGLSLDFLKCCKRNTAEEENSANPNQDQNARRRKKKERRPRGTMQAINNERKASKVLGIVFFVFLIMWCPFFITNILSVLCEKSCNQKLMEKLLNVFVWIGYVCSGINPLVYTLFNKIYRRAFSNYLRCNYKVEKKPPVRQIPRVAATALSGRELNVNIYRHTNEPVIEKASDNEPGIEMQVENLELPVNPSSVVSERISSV

human 5-HT2A = human 5-HT2A (Homo sapiens, UniProt P28223); test: Calcium flux; settings: from functional EC50 values
human 5-HT2A, sequence (P28223 whole entry): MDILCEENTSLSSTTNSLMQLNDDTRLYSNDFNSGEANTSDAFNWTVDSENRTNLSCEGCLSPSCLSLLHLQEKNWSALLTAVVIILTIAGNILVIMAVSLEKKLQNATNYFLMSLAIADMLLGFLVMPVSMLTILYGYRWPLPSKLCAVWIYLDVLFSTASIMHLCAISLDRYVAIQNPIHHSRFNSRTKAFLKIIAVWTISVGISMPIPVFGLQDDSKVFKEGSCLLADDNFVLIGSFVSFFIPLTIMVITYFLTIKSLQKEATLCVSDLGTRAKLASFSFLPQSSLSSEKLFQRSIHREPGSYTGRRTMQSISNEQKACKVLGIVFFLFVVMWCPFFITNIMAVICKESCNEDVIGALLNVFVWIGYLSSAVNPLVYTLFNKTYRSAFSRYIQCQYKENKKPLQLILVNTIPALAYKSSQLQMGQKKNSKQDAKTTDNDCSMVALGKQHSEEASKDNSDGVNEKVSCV

human 5-HT2B [6] = biological target: T1, human 5-HT2B; settings: cited from earlier work
[7] = cited from earlier work
hERG [8] = settings: previous studies; cited from earlier work
5-HT2A = settings: cited from earlier work
[9] = clinical trials, compared to placebo group; cited from earlier work

hERG (Homo sapiens, UniProt Q12809), sequence (Q12809 whole entry): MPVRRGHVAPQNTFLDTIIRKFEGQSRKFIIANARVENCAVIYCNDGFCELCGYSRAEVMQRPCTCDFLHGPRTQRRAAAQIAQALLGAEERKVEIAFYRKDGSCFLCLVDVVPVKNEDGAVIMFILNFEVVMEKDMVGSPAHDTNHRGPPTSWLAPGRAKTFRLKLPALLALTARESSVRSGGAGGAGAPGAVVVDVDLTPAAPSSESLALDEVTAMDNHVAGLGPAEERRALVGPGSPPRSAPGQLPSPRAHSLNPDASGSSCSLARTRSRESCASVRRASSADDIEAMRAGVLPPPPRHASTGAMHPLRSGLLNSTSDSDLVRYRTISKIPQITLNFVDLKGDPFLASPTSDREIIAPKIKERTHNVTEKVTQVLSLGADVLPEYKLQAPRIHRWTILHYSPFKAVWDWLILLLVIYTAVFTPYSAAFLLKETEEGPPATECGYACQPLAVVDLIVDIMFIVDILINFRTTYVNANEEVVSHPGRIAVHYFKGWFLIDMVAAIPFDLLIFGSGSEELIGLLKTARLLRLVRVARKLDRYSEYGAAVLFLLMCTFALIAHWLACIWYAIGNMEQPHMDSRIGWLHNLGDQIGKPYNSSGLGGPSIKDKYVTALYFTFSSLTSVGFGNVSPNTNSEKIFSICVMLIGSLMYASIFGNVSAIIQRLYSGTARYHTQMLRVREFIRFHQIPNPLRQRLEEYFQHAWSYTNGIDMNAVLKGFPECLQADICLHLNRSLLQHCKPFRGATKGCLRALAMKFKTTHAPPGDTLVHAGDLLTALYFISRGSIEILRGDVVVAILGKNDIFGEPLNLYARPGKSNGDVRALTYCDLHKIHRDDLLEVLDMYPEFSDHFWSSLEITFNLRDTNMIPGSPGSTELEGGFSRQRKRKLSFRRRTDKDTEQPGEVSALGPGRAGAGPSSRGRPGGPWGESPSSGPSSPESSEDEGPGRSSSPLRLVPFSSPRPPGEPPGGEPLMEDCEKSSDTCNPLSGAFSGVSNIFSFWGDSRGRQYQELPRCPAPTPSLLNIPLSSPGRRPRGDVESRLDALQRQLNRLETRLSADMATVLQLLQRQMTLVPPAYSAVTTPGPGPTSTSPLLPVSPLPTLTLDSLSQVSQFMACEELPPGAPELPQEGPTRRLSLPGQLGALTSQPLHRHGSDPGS

**Q.** Which “CYP inhibition at 10 µM, 3A” value (CYP3A) does the source give for C=CCOc1ccc(Cl)cc1[C@H]1C[C@@H]1CN.O=C(O)C(F)(F)F [(+)-13h] here?
**A.** 27%

**Q.** Which results are given for C=C(F)COc1ccc(Cl)cc1[C@H]1C[C@@H]1CN.Cl [(+)-13j]?
**A.** hERG IC50 (hERG [1]): moderate inhibition; Ames fluctuation test [2]: negative; concentration at 0.5 h ([3]; brain): 17500 ng/g; concentration at 2 h ([3]; brain): 14700 ng/g; concentration at 0.5 h ([3]; plasma): 1440 ng/mL; concentration at 2 h ([3]; plasma): 903 ng/mL; AMPH-stimulated hyperlocomotion at 20 mg/kg (C57BL/6J mice): most efficacious; AMPH-stimulated hyperlocomotion (C57BL/6J mice): dose dependently suppressed the hyperactivity

**Q.** For C=C(C)COc1ccc(Cl)cc1[C@H]1C[C@@H]1CN [(+)-13k], which EC50 (human 5-HT2B [4]) is on record?
**A.** 6090 nM

**Q.** And the Emax (human 5-HT2B [4]; read-out: Emax 5-HT2B, normalized to internal 5-HT reference)?
**A.** 39%

**Q.** What does the source list for Cl.NC[C@H]1C[C@@H]1c1cc(Cl)ccc1OCCF [(+)-13l]?
**A.** concentration at 0.5 h ([3]; brain): 12800 ng/g; concentration at 2 h ([3]; brain): 13400 ng/g; concentration at 0.5 h ([3]; plasma): 1200 ng/mL; concentration at 2 h ([3]; plasma): 874 ng/mL; AMPH-stimulated hyperlocomotion (C57BL/6J mice): not differentiated by dose

**Q.** Which Ki (human 5-HT2B [5]) does the source give for C=CCOc1ccc(F)cc1[C@H]1C[C@@H]1CN.Cl [(+)-16b, (+)-((1S,2S)-2-(2-(Allyloxy)-5-fluorophenyl)cyclopropyl)-methanamine Hydrochloride] here?
**A.** 30 to 50 nM

**Q.** And the Ki (5-HT2C receptor)?
**A.** 30 to 50 nM

**Q.** And the “AMPH-stimulated hyperlocomotion at 20 mg/kg” value (C57BL/6J mice)?
**A.** most efficacious; also recorded: completely reversed

**Q.** And the AMPH-stimulated hyperlocomotion (C57BL/6J mice)?
**A.** dose dependently suppressed the hyperactivity

**Q.** Which Ki (human 5-HT2B [5]) does the source give for Cl.NC[C@H]1C[C@@H]1c1cc(F)ccc1OCCF [(+)-16d, (+)-((1S,2S)-2-(5-Fluoro-2-(2-fluoroethoxy)phenyl)-cyclopropyl)methanamine Hydrochloride] here?
**A.** 30 to 50 nM

**Q.** And the Ki (5-HT2C receptor)?
**A.** 30 to 50 nM

**Q.** What about the “selectivity for 5-HT2C against 5-HT2A” value (human 5-HT2A) of the same compound?
**A.** > 100 fold

**Q.** And the AMPH-stimulated hyperlocomotion (C57BL/6J mice)?
**A.** not differentiated by dose

**Q.** What does the source list for Clc1cccc(COc2cncc(N3CCNCC3)n2)c1 [CP-809,101, 2-(3-chlorobenzyloxy)-6-(piperazinyl)-pyrazine]?
**A.** 5-HT2C selectivity against 5-HT2B (human 5-HT2B [6]): about 600 fold; genotoxicity [7]: genotoxicity

**Q.** With NC[C@H]1C[C@@H]1c1cc(F)ccc1OCC1CC1 [Compound 8] as the compound, how does the hERG inhibition (hERG [8]) read?
**A.** no hERG inhibition

**Q.** Which “agonist activity at 5-HT2A” value (5-HT2A) does the source give for c1cc2c3c(c1)[C@H]1CCC[C@H]1N3CCNC2 [WAY-163909, (7bR,10aR)-1,2,3,4,8,9,10,10a–octahydro-7bH-cyclopenta-[b][1,4]diazepino[6,7,1-hi]indole] here?
**A.** no agonist activity

**Q.** Which “incidence of cardiac valve disorders” value [9] does the source give for C[C@H]1CNCCc2ccc(Cl)cc21 [lorcaserin] here?
**A.** higher incidence of cardiac valve disorders
